PMC11728001, “Design, Synthesis, and Biological Evaluation of Novel Urea-Containing Carnosic Acid Derivatives with Anticancer Activity” (International Journal of Molecular Sciences, 2024)

How the values were obtained:
Type in all cases: cell-based
SW480 cells = assay: Apoptosis assay (annexin V-FITC/PI, FACS); settings: SW480, IC50 concentration
Text: Apoptosis can be detected by staining the cells with annexin V and propidium iodide (PI). […] However, during the early stages of apoptosis, the membrane flips and PS is exposed on the outer side of the cell membrane. Thus, annexin V fluorescently labeled with fluorescein isothiocyanate (FITC) binds with high affinity for PS. In late apoptosis/necrosis, the cells experience a ruptured membrane, allowing Annexin V to interact with the entire cell membrane. At this stage, the nuclear membrane loses its integrity, which facilitates the binding of PI to DNA. Thus, this dual-staining protocol allows for the detection and quantification of live cells (annexin V−, PI−), early apoptotic cells (annexin V+, PI−), and late apoptotic/necrotic cells (annexin V+, PI+).
SW480 cells (1.68 × 10^5 cells/well) were seeded in 6-well plates and incubated at 37 °C for 24 h. Subsequently, the growth medium was replaced with fresh medium (control) or compound 14 at the previously determined IC50 concentration. Following incubation for 24, 48, or 72 h, the adherent cells were gently detached by trypsinization, washed with DPBS, and collected by centrifugation. Similarly, the cells in suspension were washed with DPBS and collected by centrifugation, along with the adhered cells. […]

[1] = test system: HCT116 colorectal cancer cell line; assay: MTT cell viability assay, HCT116; settings: Homo sapiens, HCT-116, 72 h incubation, mean ± SD
Experimental: The antiproliferative activity of CA 1 and its derivatives was evaluated against a colorectal cancer (CRC) cell line (HCT116) using the MTT assay. The anticancer drug cisplatin was used as the reference drug.
(§1) The effect of the compounds on cell viability was evaluated using the MTT assay. HCT116 (3000 cells/well), SW620 (8000 cells/well), SW480 (6000 cells/well), Caco-2 (4000 cells/well), A375 (1500 cells/well), MiaPaca-2 (2000 cells/well), and BJ (10,000 cells/well) cells were seeded in 96-well plates. After 24 h, the growth medium was replaced with a fresh medium containing the desired concentration of the compound or DMSO (control). After 72 h of incubation, the supernatant was removed and 100 µL of a mixture (1:1) of filtered MTT solution (1 mg/mL in PBS) with FBS-free medium was added to each well. After 1 h of incubation at 37 °C, the mixture was removed and 100 µL of DMSO was added to each well to dissolve the formed formazan crystals. Absorbance was immediately measured at 570 nm using a Benchmark Plus Microplate Reader (Bio-Rad Laboratories, Hercules, CA, USA). IC50 values were calculated using GraphPad Prism 9 software (GraphPad Software, San Diego, CA, USA) and expressed as the mean ± standard deviation (SD) of at least three independent experiments.

SW620 cells = assay: MTT cell viability assay, SW620; settings: Homo sapiens, SW-620, 72 h incubation, mean ± SD
Experimental: as §1

A375 melanoma cells = assay: MTT cell viability assay, A375; settings: Homo sapiens, A-375, 72 h incubation, mean ± SD
Experimental: as §1

SOD2 (MnSOD) = assay: Western blot, SOD2 (MnSOD) expression in SW480 cells; settings: SW480, IC50 concentration, 24, 48 and 72 h
Experimental: SW480 cells (1.68 × 10^5 cells/well) were seeded in 6-well plates and incubated at 37 °C for 24 h. […] At the end of the treatment period, cells were washed twice with ice-cold DPBS and incubated for 30 min. at 4 °C with lysis buffer containing 20 mM Tris-HCl (pH 7.5), 1 mM DTT, 0.2% Triton X-100, 1 mM Na-EDTA, 0.5 mM sodium deoxycholate, 1% proteases inhibitor cocktail, and 0.5% phosphatases inhibitor cocktail. The cells were scraped, sonicated, and centrifuged at 12,000× g for 20 min. at 4 °C. The supernatants were recovered, and the protein concentration was quantified using Pierce^TM BCA protein assay reagents A and B and Pierce^TM bovine serum albumin standard ampules (2 mg/mL).
Membranes were blocked with 5% skim milk in PBS-Tween-20 (0.1%) for 1 h at room temperature, following its incubation with the specific primary antibodies overnight at 4 °C (CDK4, CDK6, and SOD2 (MnSOD)). Exceptionally, the primary antibody against actin was only incubated for 30 min. at room temperature. The membranes were then washed with PBS-Tween-20 (0.1%) and incubated for 40 min. with an anti-mouse secondary antibody or for 1 h with an anti-rabbit secondary antibody. After incubation, the membranes were washed again with PBS-Tween-20 (0.1%) and treated with the Immobilon Western Chemiluminescent HRP Substrate Kit. […]

Caco-2 cells = assay: MTT cell viability assay, Caco-2; settings: Homo sapiens, 72 h incubation, mean ± SD
Experimental: as §1

**Q.** Which results are given for CC(=O)Oc1c(C(C)C)cc2c(c1OC(C)=O)[C@@]1(NC(=O)NCCc3cccc(Cl)c3)CCCC(C)(C)[C@@H]1CC2 [Compound 14, (4bR,8aS)-4b-(3-(3-chlorophenethyl)ureido)-2-isopropyl-8,8-dimethyl-4b,5,6,7,8,8a,9,10-octahydrophenanthrene-3,4-diyl diacetate]?
**A.** increase of cells in late apoptosis/necrosis (SW480 cells; 48 and 72 h): not sustained; percentage of cells in late apoptosis/necrosis (SW480 cells; 24 h, control 6.5%): 8.3%; IC50 [1]: 9.8 ± 0.5 µM; IC50 (SW620 cells): 6.1 ± 0.3 µM; IC50 (A375 melanoma cells): 7 ± 0.4 µM; expression of SOD2 (MnSOD) (SOD2 (MnSOD)): no significant changes; IC50 (Caco-2 cells): 8 ± 0.5 µM
